# Where two headings read alike, the source gives them in different places.
# Experiments:
# Test in all cases: Dundee kinase screen re-test (standard format and 4 hour pre-incubation)
# Format in all cases: biochemical
# [1] = biological target: YES1 (Homo sapiens, UniProt P07947); details: YES1, 0.5µM
# Description: (§1) Prior to determining its cellular activity, we carried out a screen to assess its selectivity against a panel of 131 protein kinases under conditions that would not distinguish between a reversible or irreversible mode of action. […] These 13 kinases and 29 additional kinases, selected for their known sensitivity to other inhibitors within the purine series, were then tested in a modified screening format in which the assay was repeated following a 4-hr pre-incubation (Table S3B). […] However, conformational flexibility around the active site may promote such an interaction with a residue from another part of the structure ([Martin et al., 2012]).
# (§2) Table S3, Related to Figure 4. NCL-0006300 protein kinase selectivity. […]
# (§3) Dundee protein kinase screen (Bain et al., 2007). […]
# (§4) (B) Selected kinases were re-tested in the Dundee kinase screen against NU6300 at a single concentration of 0.5 µM both in the standard assay format and following a 4 hour pre-incubation in the presence of NU6300. Kinases which have very low activity after the 4 hour incubation so that results might not be wholly reliable are boxed in salmon. Kinases where the activity after a 4 hour pre-incubation is < 50% that in the standard assay format are highlighted in red.
# [2] = biological target: T1, TAO1 (Homo sapiens, UniProt Q7L7X3); details: TAO1, 0.5µM
# T1 sequence (Q7L7X3 1-1001): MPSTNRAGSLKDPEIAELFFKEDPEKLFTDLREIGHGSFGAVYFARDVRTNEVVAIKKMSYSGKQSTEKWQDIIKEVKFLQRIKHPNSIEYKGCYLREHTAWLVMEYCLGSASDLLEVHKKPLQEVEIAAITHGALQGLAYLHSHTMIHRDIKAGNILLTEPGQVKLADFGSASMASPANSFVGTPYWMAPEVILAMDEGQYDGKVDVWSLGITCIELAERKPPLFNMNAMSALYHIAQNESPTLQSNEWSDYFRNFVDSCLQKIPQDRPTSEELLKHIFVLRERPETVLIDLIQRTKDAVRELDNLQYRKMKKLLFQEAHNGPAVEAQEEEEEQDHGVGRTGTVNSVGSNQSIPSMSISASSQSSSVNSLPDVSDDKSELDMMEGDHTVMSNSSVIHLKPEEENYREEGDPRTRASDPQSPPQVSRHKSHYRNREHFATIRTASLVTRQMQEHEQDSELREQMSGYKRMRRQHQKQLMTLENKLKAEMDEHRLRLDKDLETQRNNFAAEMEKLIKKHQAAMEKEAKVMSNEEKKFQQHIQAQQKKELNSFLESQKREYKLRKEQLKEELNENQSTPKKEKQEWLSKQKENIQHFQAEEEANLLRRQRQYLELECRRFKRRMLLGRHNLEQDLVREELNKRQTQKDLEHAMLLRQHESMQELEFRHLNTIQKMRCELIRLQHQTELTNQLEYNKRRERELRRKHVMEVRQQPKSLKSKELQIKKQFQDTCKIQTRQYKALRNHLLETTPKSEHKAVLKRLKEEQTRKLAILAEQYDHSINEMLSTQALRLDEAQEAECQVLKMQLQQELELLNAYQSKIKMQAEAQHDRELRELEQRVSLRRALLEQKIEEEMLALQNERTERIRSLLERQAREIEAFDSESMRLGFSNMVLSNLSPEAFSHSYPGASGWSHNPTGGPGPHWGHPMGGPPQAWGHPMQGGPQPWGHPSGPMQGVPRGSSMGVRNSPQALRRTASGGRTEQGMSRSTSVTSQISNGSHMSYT
# Description: as §1, §2, §3, §4
# [3] = biological target: T2, TSSK1 (Homo sapiens, UniProt Q9BXA7); details: TSSK1, 0.5µM
# T2 sequence (Q9BXA7 1-367): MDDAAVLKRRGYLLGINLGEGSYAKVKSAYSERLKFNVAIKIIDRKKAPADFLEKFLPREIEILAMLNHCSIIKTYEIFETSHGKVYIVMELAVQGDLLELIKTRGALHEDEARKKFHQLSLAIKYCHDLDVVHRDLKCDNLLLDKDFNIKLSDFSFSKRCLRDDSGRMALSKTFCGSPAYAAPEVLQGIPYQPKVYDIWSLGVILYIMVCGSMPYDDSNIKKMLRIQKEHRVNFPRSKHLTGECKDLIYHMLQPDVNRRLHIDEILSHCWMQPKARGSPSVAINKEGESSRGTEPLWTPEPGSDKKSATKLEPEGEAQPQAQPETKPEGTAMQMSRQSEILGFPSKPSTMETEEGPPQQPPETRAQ
# Description: as §1, §2, §3, §4
# [4] = biological target: CLK2 (Homo sapiens, UniProt P49760); details: CLK2, 0.5µM
# Description: as §1, §2, §3, §4
# [5] = biological target: T3, TBK1 (Homo sapiens, UniProt Q9UHD2); details: TBK1, 0.5µM
# T3 sequence (Q9UHD2 1-729): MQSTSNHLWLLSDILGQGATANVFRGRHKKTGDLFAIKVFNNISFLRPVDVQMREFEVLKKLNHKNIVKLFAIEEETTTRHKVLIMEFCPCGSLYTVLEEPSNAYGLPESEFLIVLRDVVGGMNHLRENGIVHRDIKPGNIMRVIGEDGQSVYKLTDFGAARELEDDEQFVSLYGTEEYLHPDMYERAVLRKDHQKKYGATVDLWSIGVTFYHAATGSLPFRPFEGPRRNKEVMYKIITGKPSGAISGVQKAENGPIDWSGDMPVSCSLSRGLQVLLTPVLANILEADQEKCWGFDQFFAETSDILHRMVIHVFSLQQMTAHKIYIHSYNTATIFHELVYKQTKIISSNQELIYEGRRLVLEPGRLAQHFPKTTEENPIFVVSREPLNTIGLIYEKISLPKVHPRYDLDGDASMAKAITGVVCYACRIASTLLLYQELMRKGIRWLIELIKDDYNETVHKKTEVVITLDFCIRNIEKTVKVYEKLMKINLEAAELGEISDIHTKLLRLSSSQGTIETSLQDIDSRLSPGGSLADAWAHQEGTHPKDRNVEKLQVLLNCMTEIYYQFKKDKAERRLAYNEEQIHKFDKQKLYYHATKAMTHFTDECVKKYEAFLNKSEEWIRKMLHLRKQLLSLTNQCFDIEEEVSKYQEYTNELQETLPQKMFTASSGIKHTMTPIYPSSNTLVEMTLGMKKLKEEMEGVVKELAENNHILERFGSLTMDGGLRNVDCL
# Description: as §1, §2, §3, §4
# [6] = 4hr RT preincubation, read-out: %Remaining activity at 0.5µM NU6300 - 4hr RT preincubation
# [7] = usual format, read-out: %Remaining activity at 0.5µM NU6300 - Usual assay format
# Chain of YES1 (P07947 whole entry): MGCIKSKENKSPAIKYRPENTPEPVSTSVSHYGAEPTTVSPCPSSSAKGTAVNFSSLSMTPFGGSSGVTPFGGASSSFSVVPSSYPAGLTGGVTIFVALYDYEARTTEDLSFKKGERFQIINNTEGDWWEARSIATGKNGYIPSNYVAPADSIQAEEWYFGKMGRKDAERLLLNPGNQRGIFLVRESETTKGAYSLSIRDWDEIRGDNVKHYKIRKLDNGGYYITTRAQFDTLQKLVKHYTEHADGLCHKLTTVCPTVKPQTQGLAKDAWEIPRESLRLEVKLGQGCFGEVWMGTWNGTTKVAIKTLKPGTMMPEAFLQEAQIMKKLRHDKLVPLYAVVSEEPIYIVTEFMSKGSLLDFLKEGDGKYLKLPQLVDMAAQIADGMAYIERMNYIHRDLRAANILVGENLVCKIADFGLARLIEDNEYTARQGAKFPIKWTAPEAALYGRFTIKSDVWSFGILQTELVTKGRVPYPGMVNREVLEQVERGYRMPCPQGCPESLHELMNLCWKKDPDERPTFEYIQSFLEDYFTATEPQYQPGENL
# Chain of CLK2 (P49760 whole entry): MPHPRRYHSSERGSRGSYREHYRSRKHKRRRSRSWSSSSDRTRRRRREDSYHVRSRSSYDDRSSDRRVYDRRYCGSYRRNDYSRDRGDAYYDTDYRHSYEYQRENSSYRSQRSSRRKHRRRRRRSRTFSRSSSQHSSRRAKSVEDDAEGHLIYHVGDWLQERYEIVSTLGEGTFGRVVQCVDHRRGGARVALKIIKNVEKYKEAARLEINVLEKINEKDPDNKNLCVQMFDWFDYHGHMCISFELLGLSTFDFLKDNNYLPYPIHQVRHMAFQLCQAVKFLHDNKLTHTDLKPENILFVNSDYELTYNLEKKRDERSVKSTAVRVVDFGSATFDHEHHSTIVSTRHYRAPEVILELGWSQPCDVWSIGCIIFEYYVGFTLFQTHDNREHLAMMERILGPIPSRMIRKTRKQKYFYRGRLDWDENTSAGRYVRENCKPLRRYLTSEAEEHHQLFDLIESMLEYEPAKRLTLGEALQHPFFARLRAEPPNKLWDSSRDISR
compound,measurement,setting,value
"C=CS(=O)(=O)c1ccc(Nc2nc(OCC3CCCCC3)c3nc[nH]c3n2)cc1 [NU6300, 6-(cyclohexylmethoxy)-N-(4-(vinylsulfonyl)phenyl)-9H-purin-2-amine]",remaining activity at 0.5 µM,[1]; [6],135%
same,remaining activity at 0.5 µM,[1]; [7],43%
same,remaining activity at 0.5 µM,[2]; [6],20%
same,remaining activity at 0.5 µM,[2]; [7],27%
same,remaining activity at 0.5 µM,[3]; [6],67%
same,remaining activity at 0.5 µM,[3]; [7],53%
same,remaining activity at 0.5 µM,[4]; [6],104%
same,remaining activity at 0.5 µM,[4]; [7],35%
same,remaining activity at 0.5 µM,[5]; [6],75%
same,remaining activity at 0.5 µM,[5]; [7],62%
